# Measurements from patent publication US20210122730A1, “GLUCOCORTICOID RECEPTOR MODULATORS” (ORIC Pharmaceuticals, Inc., priority 2017, published 2021).
# Molecular target: T1, GR (Homo sapiens, UniProt P04150)
# T1 construct: expressed in transfected cells; host or cells: CHO-K1
# T1 sequence (P04150 1-777): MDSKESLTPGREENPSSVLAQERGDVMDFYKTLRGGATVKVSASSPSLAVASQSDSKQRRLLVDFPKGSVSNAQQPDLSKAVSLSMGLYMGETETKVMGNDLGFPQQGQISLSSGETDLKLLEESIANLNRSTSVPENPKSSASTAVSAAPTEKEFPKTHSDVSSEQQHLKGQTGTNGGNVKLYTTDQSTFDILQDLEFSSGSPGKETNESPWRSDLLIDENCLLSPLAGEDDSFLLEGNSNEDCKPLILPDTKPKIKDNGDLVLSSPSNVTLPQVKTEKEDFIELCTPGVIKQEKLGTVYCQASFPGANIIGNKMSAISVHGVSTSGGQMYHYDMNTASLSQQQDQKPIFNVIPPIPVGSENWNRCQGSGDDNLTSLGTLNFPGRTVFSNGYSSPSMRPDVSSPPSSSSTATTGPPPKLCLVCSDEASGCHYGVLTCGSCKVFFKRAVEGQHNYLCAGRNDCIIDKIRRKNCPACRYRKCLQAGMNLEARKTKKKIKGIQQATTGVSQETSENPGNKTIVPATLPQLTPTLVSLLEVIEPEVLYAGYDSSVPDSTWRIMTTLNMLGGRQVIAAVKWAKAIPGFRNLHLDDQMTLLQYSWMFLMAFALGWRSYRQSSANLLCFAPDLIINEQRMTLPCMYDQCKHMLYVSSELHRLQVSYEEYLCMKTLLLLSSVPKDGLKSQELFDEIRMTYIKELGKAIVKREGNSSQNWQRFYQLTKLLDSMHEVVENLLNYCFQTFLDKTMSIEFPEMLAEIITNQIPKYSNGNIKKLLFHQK
# Test: In Vitro GR Luciferase Reporter Assay (antagonist mode, CHO-K1-GR-MMTV-Luc reporter cells)
# Type: cell-based
# Settings: antagonist assay with 10 nM Dexamethasone, 18-24 hours
# Description: Example A: In Vitro GR Luciferase Reporter Assay
# Cell Line: CHO-K1-GR-MMTV-Luc reporter cells
# Culture Media: DMEM (with phenol red)+10% FBS
# Assay Media: DMEM (without phenol red)+10% CSS
# Culture CHO-K1I-GR-MMTV-Luc reporter cells in 15 cm plates in Culture Media at conditions less than 90% confluence.
# Prepare 200×DMSO 1:5 serial dilutions of control and test compounds in 96-well non-sterile V bottom plate in DMSO, 8serial dilutions for each compound.
# Prepare 5× Assay Media diluted compound serial dilutions in 96-well non-sterile V bottom plate: Add 97.5 uL/well of Assay Media into 96-well then add 2.5 ul of 200× concentration of compounds and mix well.
# Seed cells for Antagonist Assay: […] CHO-K1-GR-MMTV-Luc reporter cells were seeded in a Corning 3707 flat clear bottom 384-well white TC plate in 20 ul of Assay Media containing 12.5 nM Dexamethasone (final concentration=10 nM).
# Add compounds: 5 ul of assay media diluted compounds were added to appropriate wells and followed a quick spin (1000 rpm, 10 sec) to bring media and cells to the bottom of plate. The plates were covered with SealMate film to avoid evaporation and placed in 37° C. incubator for approximately 18-24 hours.
# Read plates: Equilibrate appropriate amount of Promega OneGlo luciferase reagent to room temperature. Remove the plates from incubator and add 25 uL of OneGlo reagent/well by multiple channel pipette and read the plates with Tecan F500 luminometer within 3 minutes.
# The ability of the compounds disclosed herein to inhibit GR activity was quantified and the respective IC50 value was determined. Table 1and Table 2provide the cellular IC50 values of compounds disclosed herein.
row,Compound,IC50 [µM]
1,"O=C(c1cc(C(F)(F)F)ccn1)[C@]12Cc3cnn(-c4ccc(F)cc4)c3C=C1CC[C@@H](S(=O)(=O)c1cnns1)C2 [Example 27, ((4aS,6R)-6-((1,2,3-thiadiazol-5-yl)sulfonyl)-1-(4-fluorophenyl)-1,4,5,6,7,8-hexahydro-4aH-benzo[f]indazol-4a-yl)(4-(trifluoromethyl)pyridin-2-yl)methanone]",0.1 to 1
2,"O=C(c1ccccn1)[C@]12Cc3cnn(-c4ccc(F)cc4)c3C=C1CC[C@H](S(=O)(=O)c1cccc(C(F)(F)F)c1)C2 [Example 28, ((4aS,6S)-1-(4-fluorophenyl)-6-((3-(trifluoromethyl)phenyl)sulfonyl)-1,4,5,6,7,8-hexahydro-4aH-benzo[f]indazol-4a-yl)(pyridin-2-yl)methanone]",≤ 0.1
3,"O=C(c1ccccn1)[C@]12Cc3cnn(-c4ccc(F)cc4)c3C=C1CC[C@@H](S(=O)(=O)c1ccc(F)cc1)C2 [Example 29, ((4aS,6R)-1-(4-fluorophenyl)-6-((4-fluorophenyl)sulfonyl)-1,4,5,6,7,8-hexahydro-4aH-benzo[f]indazol-4a-yl)(pyridin-2-yl)methanone]",0.1 to 1
4,"Cc1ccnc(C(=O)[C@]23Cc4cnn(-c5ccc(F)cc5)c4C=C2CC[C@H](S(=O)(=O)c2ccc(F)c(F)c2)C3)c1 [Example 30, ((4aS,6S)-6-((3,4-difluorophenyl)sulfonyl)-1-(4-fluorophenyl)-1,4,5,6,7,8-hexahydro-4aH-benzo[f]indazol-4a-yl)(4-methylpyridin-2-yl)methanone]",≤ 0.1
5,"Cc1ccc(C(=O)[C@]23Cc4cnn(-c5ccc(F)cc5)c4C=C2CC[C@H](S(=O)(=O)c2cccc(C(F)(F)F)c2)C3)nc1 [Example 31, ((4aS,6S)-1-(4-fluorophenyl)-6-((3-(trifluoromethyl)phenyl)sulfonyl)-1,4,5,6,7,8-hexahydro-4aH-benzo[f]indazol-4a-yl)(5-methylpyridin-2-yl)methanone]",≤ 0.1
6,"O=C(c1ccccn1)[C@]12Cc3cnn(-c4ccc(F)cc4)c3C=C1CC[C@H](S(=O)(=O)c1ccc(C(F)(F)F)cn1)C2 [Example 32, ((4aS,6S)-1-(4-fluorophenyl)-6-((5-(trifluoromethyl)pyridin-2-yl)sulfonyl)-1,4,5,6,7,8-hexahydro-4aH-benzo[f]indazol-4a-yl)(pyridin-2-yl)methanone]",≤ 0.1
7,"Cn1ncc(S(=O)(=O)[C@H]2CCC3=Cc4c(cnn4-c4ccc(F)cc4)C[C@]3(C(=O)c3cc(C(F)(F)F)ccn3)C2)n1 [Example 33, ((4aS,6S)-1-(4-fluorophenyl)-6-((2-methyl-2H-1,2,3-triazol-4-yl)sulfonyl)-1,4,5,6,7,8-hexahydro-4aH-benzo[f]indazol-4a-yl)(4-(trifluoromethyl)pyridin-2-yl)methanone]",≤ 0.1
8,"Cc1ccnc(C(=O)[C@]23Cc4cnn(-c5ccc(F)cc5)c4C=C2CC[C@H](S(=O)(=O)c2ccccn2)C3)c1 [Example 34, ((4aS,6S)-1-(4-fluorophenyl)-6-(pyridin-2-ylsulfonyl)-1,4,5,6,7,8-hexahydro-4aH-benzo[f]indazol-4a-yl)(4-methylpyridin-2-yl)methanone]",≤ 0.1

# More lines, now with the values ahead:
row,IC50 [µM],Compound
1,≤ 0.1,"O=C(c1ccccn1)[C@]12Cc3cnn(-c4ccc(F)cc4)c3C=C1CC[C@@H](S(=O)(=O)c1ccc(F)c(F)c1)C2 [Example 16, ((4aS,6R)-6-((3,4-difluorophenyl)sulfonyl)-1-(4-fluorophenyl)-1,4,5,6,7,8-hexahydro-4aH-benzo[f]indazol-4a-yl)(pyridin-2-yl)methanone]"
2,≤ 0.1,"O=C(c1cc(C(F)(F)F)ccn1)[C@]12Cc3cnn(-c4ccc(F)cc4)c3C=C1CC[C@@H](S(=O)(=O)c1cccc(C(F)(F)F)c1)C2 [Example 17, ((4aS,6R)-1-(4-fluorophenyl)-6-((3-(trifluoromethyl)phenyl)sulfonyl)-1,4,5,6,7,8-hexahydro-4aH-benzo[f]indazol-4a-yl)(4-(trifluoromethyl)pyridin-2-yl)methanone]"
3,≤ 0.1,"O=C(c1ccccn1)[C@]12Cc3cnn(-c4ccc(F)cc4)c3C=C1CC[C@@H](S(=O)(=O)c1cccc(C(F)(F)F)c1)C2 [Example 18, ((4aS,6R)-1-(4-fluorophenyl)-6-((3-(trifluoromethyl)phenyl)sulfonyl)-1,4,5,6,7,8-hexahydro-4aH-benzo[f]indazol-4a-yl)(pyridin-2-yl)methanone]"
4,≤ 0.1,"COc1ccc(S(=O)(=O)[C@H]2CCC3=Cc4c(cnn4-c4ccc(F)cc4)C[C@]3(C(=O)c3ccccn3)C2)cc1 [Example 19, ((4aS,6S)-1-(4-fluorophenyl)-6-((4-methoxyphenyl)sulfonyl)-1,4,5,6,7,8-hexahydro-4aH-benzo[f]indazol-4a-yl)(pyridin-2-yl)methanone]"
5,≤ 0.1,"O=C(c1ccccn1)[C@]12Cc3cnn(-c4ccc(F)cc4)c3C=C1CC[C@H](S(=O)(=O)c1ccccc1)C2 [Example 20, ((4aS,6S)-1-(4-fluorophenyl)-6-(phenylsulfonyl)-1,4,5,6,7,8-hexahydro-4aH-benzo[f]indazol-4a-yl)(pyridin-2-yl)methanone]"
6,≤ 0.1,"O=C(c1ccccn1)[C@]12Cc3cnn(-c4ccc(F)cc4)c3C=C1CC[C@H](S(=O)(=O)Cc1ccccc1)C2 [Example 21, ((4aS,6S)-6-(benzylsulfonyl)-1-(4-fluorophenyl)-1,4,5,6,7,8-hexahydro-4aH-benzo[f]indazol-4a-yl)(pyridin-2-yl)methanone]"
7,≤ 0.1,"O=C(c1ccccn1)[C@]12Cc3cnn(-c4ccc(F)cc4)c3C=C1CC[C@H](S(=O)(=O)c1ccc(F)c(F)c1)C2 [Example 22, ((4aS,6S)-6-((3,4-difluorophenyl)sulfonyl)-1-(4-fluorophenyl)-1,4,5,6,7,8-hexahydro-4aH-benzo[f]indazol-4a-yl)(pyridin-2-yl)methanone]"
8,≤ 0.1,"Cc1ccnc(C(=O)[C@]23Cc4cnn(-c5ccc(F)cc5)c4C=C2CC[C@H](S(=O)(=O)c2cnn(C)c2)C3)c1 [Example 23, ((4aS,6S)-1-(4-fluorophenyl)-6-((1-methyl-1H-pyrazol-4-yl)sulfonyl)-1,4,5,6,7,8-hexahydro-4aH-benzo[f]indazol-4a-yl)(4-methylpyridin-2-yl)methanone]"
9,≤ 0.1,"O=C(c1ccccn1)[C@]12Cc3cnn(-c4ccc(F)cc4)c3C=C1CC[C@@H](S(=O)(=O)c1ccccc1)C2 [Example 24, ((4aS,6R)-1-(4-fluorophenyl)-6-(phenylsulfonyl)-1,4,5,6,7,8-hexahydro-4aH-benzo[f]indazol-4a-yl)(pyridin-2-yl)methanone]"
10,≤ 0.1,"O=C(c1ccccn1)[C@]12Cc3cnn(-c4ccc(F)cc4)c3C=C1CC[C@H](S(=O)(=O)c1ccc(F)cc1)C2 [Example 25, ((4aS,6S)-1-(4-fluorophenyl)-6-((4-fluorophenyl)sulfonyl)-1,4,5,6,7,8-hexahydro-4aH-benzo[f]indazol-4a-yl)(pyridin-2-yl)methanone]"
11,≤ 0.1,"O=C(c1ccccn1)[C@]12Cc3cnn(-c4ccc(F)cc4)c3C=C1CC[C@H](S(=O)(=O)c1ccccn1)C2 [Example 26, ((4aS,6S)-1-(4-fluorophenyl)-6-(pyridin-2-ylsulfonyl)-1,4,5,6,7,8-hexahydro-4aH-benzo[f]indazol-4a-yl)(pyridin-2-yl)methanone]"
